Key:
primary chicken neurons = assay: Inhibition of Abeta 1-42 toxicity on primary chicken neurons (MTT); format: cell-based; parameters: key: No: no effect; +: minor positive effect on cell viability in the presence of aggregated Aβ 1-42; ++: medium positive effect on cell viability in the presence of aggregated Aβ 1-42; +++: strong positive effect on cell viability in the presence of aggregated Aβ 1-42
Protocol: One-day-old fertilized eggs are stored under appropriate conditions until start of breeding. On embryonic day 0 eggs are transferred to the breeding incubator and under turning, kept at 37.8° C. and 55% humidity until embryonic day eight. Neurons are prepared as follows: In short, embryos are transferred to a plastic dish, and decapitated. Both brain hemispheres are removed, collected and any loose tissue removed. Hemispheres are mechanically dissociated and 4.8×10^4 cells per well (96-well plates) are seeded in a volume of 160 μl.
Aβ1-42 (MW 4514.1) was obtained from American Peptide Company as a lyophilized powder. A stock solution of 340 μM Aβ1-42 was prepared in 50 mM Tris-Buffer, 150 mM NaCl, pH7.6 according to the manufacturer's instructions. After sonication, the stock solution is diluted 1:1 with the test compounds to obtain a concentration of 170, 17 and 1.7 μM. After aggregation at 4° C. for 48 h, the solutions are sonicated again prior to application to the cells. The final concentration of Aβ1-42 applied to the primary chicken neurons is 10 μM.
Aβ1-42 aggregated together with compound for 48 hrs was applied to chicken neurons at DIV4 (days in vitro) and analyzed at DIV10 (144 hrs) and all others were applied to chicken neurons at DIV6 and analysed at DIV10 (96 hrs).
Viability of cultures is determined by the MTT assay. The MTT assay allows for the measurement of the mitochondrial dehydrogenase activity which reduces yellow MTT to dark blue formazan crystals. Since this reaction is catalyzed in living cells only this assay is used for the determination of cell viability. MTT solution is added to each well in a final concentration of 0.5 mg/ml. After 2 hours the MTT containing medium is aspired. Cells are lysed in 3% SDS and the formazan crystals are dissolved in isopropanol/HCl. Optical density is measured with a plate-reader at wavelength 570 nm. Cell survival rate is expressed as a percentage of optical density (OD) relative to control cells not treated with Aβ or compound.

biotinylated Aβ1-42 = molecular target: T1, biotinylated Aβ1-42 (Homo sapiens, UniProt P05067); assay: Inhibition of Abeta oligomerisation (biotinylated Aβ1-42, neutravidin plate, streptavidin-HRP); format: biochemical; settings: inhibition of Aβ1-42 aggregation, approximately 12 nM Aβ1-42, PBS pH 7.4, 2% DMSO, 30 min RT
T1 construct: To assure monomerisation of biotinylated Aβ1-42 (Anaspec #23523-0.5) the peptide was thoroughly monomerised; purchased Anaspec 23523-0.5
T1 sequence (P05067 672-713 limits assumed): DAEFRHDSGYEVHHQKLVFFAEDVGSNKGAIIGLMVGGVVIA

[1] = Conc. 0.1 μM, 10 μM Aβ1-42 aggregated together with compound for 48 h
[2] = Conc. 1 μM, 10 μM Aβ1-42 aggregated together with compound for 48 h
[3] = Conc. 10 μM, 10 μM Aβ1-42 aggregated together with compound for 48 h

With `Nc1c(/N=N/c2ccc(-c3ccc(/N=N/c4cc(S(=O)(=O)O)c5ccccc5c4N)cc3)cc2)cc(S(=O)(=O)O)c2ccccc12` [Congo Red, reference compound] the “Rescue of Abeta toxicity (MTT)” value (primary chicken neurons; Conc. 5 μM, 10 μM Aβ1-42) was “++” and the IC50 (biotinylated Aβ1-42) was 1.58 µM.
`O=C(O)c1ccc(-c2cc(CCO)c(-c3ccc(-c4sc(-c5ccc(C(=O)O)s5)cc4CCO)s3)s2)s1` [Example 5, 5-(5-{5-[5-(5-Carboxythiophen-2-yl)-3-(2-hydroxyethyl)thiophen-2-yl]thiophen-2-yl}-4-(2-hydroxyethyl)thiophen-2-yl)thiophene-2-carboxylic acid] was tested, and the “Rescue of Abeta toxicity (MTT)” value (primary chicken neurons; [1]) was “no”, the “Rescue of Abeta toxicity (MTT)” value (primary chicken neurons; [2]) was “++” and the “Rescue of Abeta toxicity (MTT)” value (primary chicken neurons; [3]) was “+”. For the same molecule, the IC50 (biotinylated Aβ1-42) was 3.98 µM.
For `O=C(O)Cc1ccccc1-c1cc(CC(=O)O)c(-c2ccc(-c3sc(-c4ccccc4CC(=O)O)cc3CC(=O)O)s2)s1` [Example 47, 2-(2-{5-[3-(Carboxymethyl)-5-[2-(carboxymethyl)phenyl]thiophen-2-yl]thiophen-2-yl}-5-[2-(carboxymethyl)phenyl]thiophen-3-yl)acetic acid], the “Rescue of Abeta toxicity (MTT)” value (primary chicken neurons; [1]) was “+++”, the “Rescue of Abeta toxicity (MTT)” value (primary chicken neurons; [2]) was “+++” and the “Rescue of Abeta toxicity (MTT)” value (primary chicken neurons; [3]) was “+++”.
`Cc1ccc(-c2ccc(-c3cc(CC(=O)O)c(-c4ccc(-c5sc(-c6ccc(-c7ccc(C)cc7C(=O)O)s6)cc5CC(=O)O)s4)s3)s2)c(C(=O)O)c1` [Example 63, 2-{5-[5-(5-{5-[5-(2-Carboxy-4-methylphenyl)thiophen-2-yl]-3-(carboxymethyl)thiophen-2-yl}thiophen-2-yl)-4-(carboxymethy)thiophen-2-yl]thiophen-2-yl}-5-methylbenzoic acid] showed an IC50 (biotinylated Aβ1-42) of 1 µM.
`O=C(O)/C=C/c1ccc(-c2cc(CC(=O)O)c(-c3ccc(-c4sc(-c5ccc(/C=C/C(=O)O)s5)cc4CC(=O)O)s3)s2)s1` [Example 64] gave an IC50 (biotinylated Aβ1-42) of 2.51 µM.
`O=C(O)Cc1cc(-c2ccc(-c3cc(CC(=O)O)c(-c4ccc(-c5cccc(C(=O)O)c5)s4)s3)s2)sc1-c1ccc(-c2cccc(C(=O)O)c2)s1` [Example 65, 3-{5-[3-(Carboxymethyl)-5-{5-[4-(carboxymethyl)-5-[5-(3-carboxyphenyl)thiophen-2-yl]thiophen-2-yl]thiophen-2-yl}thiophen-2-yl]thiophen-2-yl}thiophen-2-benzoic acid] gave an IC50 (biotinylated Aβ1-42) of 0.631 µM.
For `O=C(O)Cc1cc(-c2cc(CC(=O)O)c(-c3ccc(-c4cccc(C(=O)O)c4)s3)s2)sc1-c1ccc(-c2cccc(C(=O)O)c2)s1` [Example 66, 3-{5-[3-(Carboxymethyl)-5-[4-(carboxymethyl)-5-[5-(3-carboxyphenyl)thiophen-2-yl]thiophen-2-yl]thiophen-2-yl]thiophen-2-yl}benzoic acid], the IC50 (biotinylated Aβ1-42) was 5.01 µM.
With `COC(=O)Cc1cc(-c2ccc(C(=O)O)s2)sc1-c1ccc(-c2sc(-c3ccc(C(=O)O)s3)cc2CC(=O)OC)s1` [Example 69, 5-(5-{5-[5-(5-Carboxythiophen-2-yl)-3-(2-methoxy-2-oxoethyl)thiophen-2-yl]thiophen-2-yl}-4-(2-methoxy-2-oxoethyl)thiophen-2-yl)thiophene-2-carboxylic acid] the IC50 (biotinylated Aβ1-42) was 2.51 µM.
`COC(=O)c1ccc(-c2cc(CC(=O)O)c(-c3ccc(-c4sc(-c5ccc(C(=O)OC)s5)cc4CC(=O)O)s3)s2)s1` [Example 70, 2-(2-{5-[3-(Carboxymethyl)-5-[5-(methoxycarbonyl)thiophen-2-yl]thiophen-2-yl]thiophen-2-yl}-5-[5-(methoxycarbonyl)thiophen-2-yl]thiophen-3-yl)acetic acid] was tested, and the IC50 (biotinylated Aβ1-42) was 3.16 µM.
`O=C(O)Cc1ccc(-c2ccc(-c3ccc(CC(=O)O)s3)s2)s1` [Example 72, 2-(5-{5-[5-(Carboxymethyl)thiophen-2-yl]thiophen-2-yl}thiophen-2-yl)acetic acid] showed an IC50 (biotinylated Aβ1-42) of 25.1 µM.
Work on `O=C(O)c1cccc(-c2cc(CCO)c(-c3ccc(-c4sc(-c5cccc(C(=O)O)c5)cc4CCO)s3)s2)c1` [Example 74, 3-(5-{5-[5-(3-Carboxyphenyl)-3-(2-hydroxyethyl)thiophen-2-yl]thiophen-2-yl}-4-(2-hydroxyethyl)thiophen-2-yl)benzoic acid] yielded an IC50 (biotinylated Aβ1-42) of 5.01 µM.
In the case of `CS(=O)(=O)c1ccc(-c2cc(CC(=O)O)c(-c3ccc(-c4sc(-c5ccc(C(=O)O)s5)cc4CC(=O)O)s3)s2)cc1` [Example 75, 5-[4-(Carboxymethyl)-5-{5-[3-(carboxymethyl)-5-(4-methanesulfonylphenyl)thiophen-2-yl]thiophen-2-yl}thiophen-2-yl]thiophene-2-carboxylic acid], the IC50 (biotinylated Aβ1-42) is reported as 31.6 µM.
`Cn1nc(C(F)(F)F)cc1-c1cc(CC(=O)O)c(-c2ccc(-c3sc(-c4cc(C(F)(F)F)nn4C)cc3CC(=O)O)s2)s1` [Example 77, 2-(2-{5-[3-(Carboxymethyl)-5-[1-methyl-3-(trifluoromethyl)-1H-pyrazol-5-yl]thiophen-2-yl]thiophen-2-yl}-5-[1-methyl-3-(trifluoromethyl)-1H-pyrazol-5-yl]thiophen-3-yl)acetic acid] was tested, and the IC50 (biotinylated Aβ1-42) was 5.01 µM.
For `O=C(O)Cc1cc(-c2ccc(C(=O)N3CCCC3)c(F)c2)sc1-c1ccc(-c2sc(-c3ccc(C(=O)N4CCCC4)c(F)c3)cc2CC(=O)O)s1` [Example 78, 2-(2-{5-[3-(Carboxymethyl)-5-[3-fluoro-4-(pyrrolidine-1-carbonyl)phenyl]thiophen-2-yl]thiophen-2-yl}-5-[3-fluoro-4-(pyrrolidine-1-carbonyl)phenyl]thiophen-3-yl)acetic acid], the IC50 (biotinylated Aβ1-42) was 5.01 µM.
`O=C(O)Cc1cc(-c2cccc(C(=O)NC3CC3)c2)sc1-c1ccc(-c2sc(-c3cccc(C(=O)NC4CC4)c3)cc2CC(=O)O)s1` [Example 80, 2-(2-{5-[3-(Carboxymethyl)-5-[3-(cyclopropylcarbamoyl)phenyl]thiophen-2-yl]thiophen-2-yl}-5-[3-(cyclopropylcarbamoyl)phenyl]thiophen-3-yl)acetic acid] was tested, and the IC50 (biotinylated Aβ1-42) was 7.94 µM.
In the case of `N#Cc1cccc(-c2cc(CC(=O)O)c(-c3ccc(-c4sc(-c5cccc(C#N)c5)cc4CC(=O)O)s3)s2)c1` [Example 83, 2-(2-{5-[3-(Carboxymethyl)-5-(3-cyanophenyl)thiophen-2-yl]thiophen-2-yl}-5-(3-cyanophenyl)thiophen-3-yl)acetic acid], the IC50 (biotinylated Aβ1-42) is reported as 12.6 µM.
Molecule `O=C(O)Cc1ccsc1-c1ccc(-c2cc(CC(=O)O)c(-c3ccc(-c4sc(-c5ccc(-c6sccc6CC(=O)O)s5)cc4CC(=O)O)s3)s2)s1` [Example 84, 2-(2-{5-[3-(Carboxymethyl)-5-{5-[3-(carboxymethyl)thiophen-2-yl]thiophen-2-yl}thiophen-2-yl]thiophen-2-yl}-5-{5-[3-(carboxymethyl)thiophen-2-yl]thiophen-2-yl}thiophen-3-yl)acetic acid] has an IC50 (biotinylated Aβ1-42) of 1.58 µM.
In the case of `N#Cc1ccc(-c2cc(CC(=O)O)c(-c3ccc(-c4sc(-c5ccc(C#N)s5)cc4CC(=O)O)s3)s2)s1` [Example 85, 2-(2-{5-[3-(Carboxymethyl)-5-(5-cyanothiophen-2-yl)thiophen-2-yl]thiophen-2-yl}-5-(5-cyanothiophen-2-yl)thiophen-3-yl)acetic acid], the IC50 (biotinylated Aβ1-42) is reported as 3.98 µM.
In the case of `C#Cc1cc(CC(=O)O)c(-c2ccc(-c3sc(C#C)cc3CC(=O)O)s2)s1` [Example 86, 2-(2-{5-[3-(Carboxymethyl)-5-ethynylthiophen-2-yl]thiophen-2-yl}-5-ethynylthiophen-3-yl)acetic acid], the IC50 (biotinylated Aβ1-42) is reported as 20 µM.
In the case of `O=C(O)Cc1cc(-c2cccc(OC(F)(F)F)c2)sc1-c1ccc(-c2sc(-c3cccc(OC(F)(F)F)c3)cc2CC(=O)O)s1` [Example 87, 2-(2-{5-[3-(Carboxymethyl)-5-[3-(trifluoromethoxy)phenyl]thiophen-2-yl]thiophen-2-yl}-5-[3-(trifluoromethoxy)phenyl]thiophen-3-yl)acetic acid], the IC50 (biotinylated Aβ1-42) is reported as 1 µM.
In the case of `O=C(O)Cc1cc(C(=O)c2cccs2)sc1-c1ccc(-c2sc(C(=O)c3cccs3)cc2CC(=O)O)s1` [Example 93, 2-(2-{5-[3-(carboxymethyl)-5-(thiophene-2-carbonyl)thiophen-2-yl]thiophen-2-yl}-5-(thiophene-2-carbonyl)thiophen-3-yl)acetic acid], the “Rescue of Abeta toxicity (MTT)” value (primary chicken neurons; [1]) is reported as “+”, the “Rescue of Abeta toxicity (MTT)” value (primary chicken neurons; [2]) is reported as “++” and the “Rescue of Abeta toxicity (MTT)” value (primary chicken neurons; [3]) is reported as “+++”.
For `O=C(O)Cc1cc(C(=O)c2ccccc2)sc1-c1ccc(-c2sc(C(=O)c3ccccc3)cc2CC(=O)O)s1` [Example 95, 2-(5-benzoyl-2-{5-[5-benzoyl-3-(carboxymethyl)thiophen-2-yl]thiophen-2-yl}thiophen-3-yl)acetic acid], the “Rescue of Abeta toxicity (MTT)” value (primary chicken neurons; [1]) was “no”, the “Rescue of Abeta toxicity (MTT)” value (primary chicken neurons; [2]) was “no” and the “Rescue of Abeta toxicity (MTT)” value (primary chicken neurons; [3]) was “+++”.

Reference: patent US9359311B2, “Substituted aromatic oligomers” (NEUROSCIOS GMBH, priority 2011, dated 2016)
